Data taken from patent US20240277684A1, “BLOCKADE OF CHEMOKINE (C-C MOTIF) RECEPTOR 2 DURING FLUID RESUSCITATION” (University of South Florida, priority 2022, published 2024).

Tests used:
[1] = tested on: isolated rat mesenteric arteries; assay: Pressure myography with isolated rat mesenteric arteries; settings: 10 μM, 15 min pre-exposure, vs vehicle
[2] = tested on: normal rats; assay: Effects on blood pressure in normal rats; assay type: in vivo, rat
Experimental: In vivo animal experiments. All procedures were performed in accordance with the National Institutes of Health Guidelines for Use of Laboratory Animals and were approved by the University of South Florida Institutional Animal Care and Use Committeee (IS00008139). Male Sprague-Dawley rats (300-400 g, Envigo, Indianapolis, IN, USA). were anesthetized with 1.7% isoflurane via nose-cone inhalation with the SomnoSuite anesthesia system (Kent Scientific, Torrington, CT, USA). […] The left femoral artery was isolated and cannulated with a 24-gauge peripheral intravenous catheter to allow for blood withdrawal, hemodynamic monitoring, drug administration, and fluid resuscitation. Hemodynamics were continuously monitored with the SurgivetV6400 blood pressure monitor (Med-Electronics, Beltsville, MD, USA), and blood pressures and heart rate were recorded at 1-10 min intervals. All animals were observed over a 10 min period to ensure hemodynamic stability before start of the experiments. All experiments were performed randomized in alternating order. To test the effects of INCB3284 in normal rats, animals received repetitive injections of 1 mL of Lactated Ringer's solution (LR, vehicle) in 10 min intervals (n=3) or increasing doses of the drug (0.55, 0.82, 1.4 and 2.75 μmol/kg INCB3284) in 1 mL LR in 10 min intervals (n=3).

[3] = tested on: severe hemorrhagic shock; assay: Example 2 Series 4: lethal hemorrhage without fluid resuscitation; assay type: in vivo, rat; settings: 5 μmol/kg INCB3284 or 1 μmol/kg SB328437 after 40% TBV hemorrhage
Experimental: The hemorrhagic shock models were performed as described previously, with slight modifications (DeSantis A J, et al., The Chemokine (C-C Motif) Receptor 2 Antagonist INCB3284 Reduces Fluid Requirements and Protects From Hemodynamic Decompensation During Resuscitation From Hemorrhagic Shock. Crit Care Explor 2022;4(5):e0701; Bach H H, et al., Chemokine (C-X-C motif) receptor 4 and atypical chemokine receptor 3 regulate vascular alpha(1)-adrenergic receptor function. Mol Med 2014; 20:435-47; Nassoiy S P, et al., Effects of the Kv7 voltage activated potassium channel inhibitor linopirdine in rat models of hemorrhagic shock. Clin Exp Pharmacol Physiol 2018. doi: 10.1111/1440-1681.12958. PubMed PMID: 29702725; Bach H H, et al., Proteasome inhibition prolongs survival during lethal hemorrhagic shock in rats. J Trauma Acute Care Surg 2013; 74(2):499-507). In brief, anesthesia induction was performed with the animal and isoflurane-soaked gauze placed in a bell jar. After anesthesia induction, the animals were transferred to the operative field and anesthesia was maintained with 2.7% isoflurane administered via nose-cone inhalation with the SomnoSuite small animal anesthesia system (Kent Scientific Corporation, Torrington, CT, USA). […] Using a direct cut-down technique, the left femoral artery was isolated and cannulated with a 24-gauge peripheral intravenous catheter to allow for blood withdrawal, hemodynamic monitoring, drug administration, and fluid resuscitation. After catheter placement, isoflurane was decreased to 1.5%. Hemodynamics were continuously monitored with the Surgivet invasive blood pressure monitor (Med-Electronics, Beltsville, MD, USA). Blood pressures were recorded at 1-5 min intervals during the hemorrhage and resuscitation periods. Four subsequent series of experiments were performed. All experiments in each series were performed in alternating order. In all experiments animals were continuously monitored and remained under general anesthesia until euthanasia or death, as defined by asystole or loss of pulse pressure.
Series 4: The purpose of these experiments was to determine whether treatment with the chemokine receptor antagonists increases shock tolerance, blood pressure and survival time without additional fluid resuscitation. As such, death is an intentional endpoint. Earlier endpoints are unable to answer these questions and alternatives are not available. Rats were hemorrhaged 40% total blood volume (TBV) within 10 min. At t=15 min, animals were injected with vehicle (1 mL NS, n=3), 5 μmol/kg INCB3284 in 1 mL NS (n=5) or […] SB 328437 in 1 mL NS (n=5). Animals were then hemorrhaged 2% TBV every 5 minutes until death.

[4] = rats; cited from earlier work
[5] = increasing doses 0.55, 0.82, 1.4 and 2.75 μmol/kg in 1 mL LR, 10 min intervals

**Q.** Which artery diameter [1] does the source give for COc1ccc([C@]2(O)CC[C@@H](N3CC[C@@H](NC(=O)CNC(=O)c4cccc(C(F)(F)F)c4)C3)CC2)cn1 [INCB3284] here?
**A.** did not alter artery diameter

**Q.** What about the phenylephrine-induced vasoconstriction [1] of the same compound?
**A.** did not alter artery diameter or affect phenylephrine-induced vasoconstriction

**Q.** And the “MAP during the observation period” value [2, 5]?
**A.** remained constant

**Q.** And the “acute effects on blood pressure” value [2, 5]?
**A.** did not show acute effects on blood pressure

**Q.** And the “slope of the MAP linear regression line” value ([2]; increasing doses 0.55-2.75 μmol/kg, not significantly different from zero (p=0.43))?
**A.** −0.011 mmHg/min

**Q.** And the “MAP during subsequent 2% TBV hemorrhages in 5 min intervals” value ([3]; no fluid resuscitation)?
**A.** indistinguishable among groups

**Q.** And the median survival time ([3]; not significantly different between groups)?
**A.** 80 min

**Q.** And the half-live [4]?
**A.** 168 min
